Reference: patent US6503929B1, “Nitrate salt of anti-ulcer medicine” (Nicox S.A., priority 1998, dated 2003)
Where a name gives a salt, the structure may show the parent alone.

Tests used:
[1] = system: rats; assay: Anti-ulcer activity: gastric lesions produced by absolute ethyl alcohol (Robert et al. model); format: in vivo, rat; conditions: rats on empty stomach, oral dose 15 minutes before absolute ethyl alcohol (1 ml), sacrificed one hour later, cimetidine 50 mg/Kg, cimetidine nitrate 62,5 mg/Kg, ranitidine 50 mg/Kg, ranitidine nitrate 60 mg/Kg
Procedure: Anti-ulcer activity is evaluated according to the experimental model described in the paper of A. Robert e Al. “Cytoprotection by prostaglandins in rats. Prevention of gastric necrosis produced by alcohol, HCl, NaOH, hypertonic NaCl and thermal injury” 77, 433-43 1979. To 5 groups of 10 rats each, kept on empty stomach since the previous night, 15 minutes before the supply of absolute ethyl alcohol (1 ml), by oral way are supplied: 5 ml/Kg of carboxymethylcellulose aqueous suspension 2%. 50 mg/Kg of cimetidine in 5 ml/Kg of carboxymethylcellulose aqueous suspension 2%. 62,5 mg/Kg of cimetidine nitrate (corresponding to 50 mg/Kg of cimetidine) in 5 ml/Kg of carboxymethylcellulose aqueous suspension 2%. 50 mg/Kg of ranitidine in 5 ml/Kg of carboxymethylcellulose aqueous suspension 2%. 60 mg/Kg of ranitidine nitrate (corresponding to […]) in 5 ml/Kg of carboxymethylcellulose aqueous suspension 2%. A hour later the animals are sacrificed and the gastric lesion incidence is evaluated.

[2] = system: rats; conditions: rat, in vivo, po, 100 mg/kg

Row | Molecule | Gastric Damage % ([1]; mononitrate salt) | toxic symptom presence [2] | Gastric Damage % [1]
1 | CNC(=C[N+](=O)[O-])NCCSCc1ccc(CN(C)C)o1 [Ranitidine.HNO3, ranitidine mononitrate salt] | 40% | In no one of the group animals the toxic symthom presence was noted | –
2 | cimetidine mononitrate salt [Cimetidine.HNO3] | – | – | 50%
3 | CN/C(=N/CCSCc1nc[nH]c1C)NC#N [Cimetidine, cimetidine, reference compound] | – | – | 100%
4 | CNC(=C[N+](=O)[O-])NCCSCc1ccc(CN(C)C)o1 [Ranitidine, ranitidine, reference compound] | – | – | 80%
